Measured values as given in US7074807B2, “Compositions and methods for inducing cell death” (Georgetown University, priority 1998, dated 2006).

Legend:
MDA-MB 231 cells = experiment: Protein tyrosine phosphorylation (anti-PY immunoprecipitation/immunoblot); type: cell-based, human; settings: 10 mM, 15 min to 2 h
Method: FIG. 2. Effects of tempol and tempo on protein tyrosine phosphorylation. Subconfluent cultures were grown in serum-free medium overnight, followed by treatment with tempol (10 mM) or tempo (10 mM) for indicated times and lysis. Normalized protein contents (1 mg) were immunoprecipitated with agarose-conjugated anti-PY MAb, and then immunoblotted with anti-PY MAb. Data shown is representative of two independent experiments. UT, untreated cells grown overnight in serum-free medium.
Cell Culture, Treatments with Tempol and Tempo, and Preparation of Cell Lysates—MDA-MB 231 human breast cancer cells were grown to near confluence in 75 cm^2 tissue culture flasks in Improved Minimum Essential Medium (IMEM) (Cellgro) containing 10% fetal bovine serum (FBS) and 2 mM L-glutamine in a humidified atmosphere of 5% CO2: 95% air at 37° C. Cells were trypsinized and plated into a 150 mm tissue culture dish (two dishes per flask) overnight in medium containing 10% FBS followed by two washes with phosphate buffer saline (PBS). […]
Immunoprecipitation and Immunoblotting—Whole cell lysate (1 mg) was immunoprecipitated with the appropriate agarose-conjugated antibody (1 ug/ml of lysis buffer) overnight at 4° C. with constant agitation. […] The bands of interest were quantified by ImageQuant software version 3.3 (Molecular Dynamics Personal Densitometer, Sunnyvale, Calif.). […]

PCI-04A cells = experiment: Apoptosis assay (annexin V-FITC/propidium iodide flow cytometry); settings: 10 mM, PCI-04A
Method: (§1) FIGS. (7A1–7A3), (7B1–7B2), (7C1–7C3), (7D1–7D2), (7E1–7E3), (7F1–7F2). […] Cells were grown in serum-free medium overnight in T-25 flasks and treated with tempol (10 mM) or tempo (10 mM) for various times, trypsinized, and then resuspended in 200 ul 1× binding buffer as described in experimental procedures. The cell suspension was double-stained with annexin V-FITC and propidium iodide and analyzed by flow cytometry. Background signal was determined by comparison with double-stained, single-stained, or unstained control cells. (7A1–7A3), (7C1–7C3), and (7E1–7E3) are cytograms showing a relative distribution of viable (V), apoptotic (A), and necrotic (N) cells at 2 h following tempol or tempo treatment of MDA-MB 231 cells (A), PCI-04A cells (C), and PC-3 cells (E). (7B1–7B3), (7D1–7D2), and (7F1–7F2) are time course analyses of MDA-MB 231 cells (B), PCT-04A cells (D), and PC-3 cells (F). 100,000 cells were analyzed at each time point in triplicate (B) or quadruplicate (D and F). Solid bars, 1% ethanol, striped bars, 10 mM tempol, empty bars, 10 mM tempo. […] Data shown are representative from three to four independent experiments. (7B1–7B2), Time course analysis of MDA-MB 231 cells undergoing apoptosis (annexin V-FITC staining) (7B1), or necrosis (propidium iodide staining) (7B2). Values shown are mean±s.d. of triplicate determinations per time point in each treatment category, and representative of three to four independent experiments. […] (7D1–7D2), Time course analysis of PCI-04A cells undergoing apoptosis (annexin V-FITC staining) (7D1), or necrosis (propidium iodide staining) (7D2). Values shown are mean±s.d. of quadruplicate determinations per time point in each treatment category. […] (7F1–7F2), Time course analysis of PC-3 cells undergoing apoptosis (annexin V-FITC staining) (7F1), or necrosis (propidium iodide staining) (7F2). Values shown are mean±s.d. of quadruplicate determinations per time point in each treatment category. Control/C, cells treated with 1% ethanol for 2 h.
Apoptosis Assay—ApoAlert Annexin V apoptosis detection system (Clontech Lab Inc., Palo Alto, Calif.) was used to measure the relative distribution of apoptotic and necrotic cells. Briefly, cells were seeded at a density of 1×10^6 cells per 25 cm^2 tissue culture flask in medium containing 10% FBS overnight, followed by washing twice in serum-free medium. Cells were maintained overnight in serum-free medium and exposed to tempol (10 mM) or tempo (10 mM) for various times. This was followed by rinsing twice with serum-free medium prior to trypsinization, dilution in two volumes of serum-free medium, and centrifugation at 10,000× g. The cell pellet was washed once with PBS and resuspended in 200 ul of 1× binding buffer. The cell suspension was double-labeled with fluorescein isothiocyanate (FITC)-labeled annexin V (10 ul) and propidium iodide (PI) (10 ul) according to the manufacturer's instructions. Unlabeled cells or untreated cells labeled with either FITC-annexin V or PI, or double-labeled served as internal controls for the background signal. The intensity of the dye uptake by cells was detected using FACStar plus Flow Cytometer (Becton Dickerson, Lincoln Park, N.J.), and data were analyzed using Reproman True Facts software (Seattle, Wash.). Viable cells were FITC−/PI−, apoptotic cells were FITC+/PI−, and necrotic cells were FITC+/PI+.

[1] = Apoptosis assay (annexin V-FITC/propidium iodide flow cytometry), serum-free; settings: human
Method: as §1
Apoptosis Assay—ApoAlert Annexin V apoptosis detection system (Clontech Lab Inc., Palo Alto, Calif.) was used to measure the relative distribution of apoptotic and necrotic cells. Briefly, cells were seeded at a density of 1×10^6 cells per 25 cm^2 tissue culture flask in medium containing 10% FBS overnight, followed by washing twice in serum-free medium. Cells were maintained overnight in serum-free medium and exposed to tempol (10 mM) or tempo (10 mM) for various times. […] The intensity of the dye uptake by cells was detected using FACStar plus Flow Cytometer (Becton Dickerson, Lincoln Park, N.J.), and data were analyzed using Reproman True Facts software (Seattle, Wash.). […]

Compound	protein tyrosine phosphorylation (MDA-MB 231 cells)	apoptotic cells (A) (PCI-04A cells; 2 h) [%]	viable cells (V) (PCI-04A cells; 2 h) [%]	apoptosis and necrosis (PCI-04A cells; 2 h post-treatment)	intratumoral tolerance (Tolerated dose in mice)	viability at 2 h, 10 mM [1] [%]
CC1(C)CCCC(C)(C)N1[O] [tempo, 2,2,6,6-tetramethylpiperidine-N-oxyl]	conspicuous increase	48.35	18.61	significant level of apoptosis and necrosis	over 200 mg/kg	
CC1(C)CC(O)CC(C)(C)N1[O] [tempol, 4-hydroxy-tempo, reference compound]	minimal protein tyrosine phosphorylation	5.44				95.8
